Source: paper PMC2932872 (Journal of agricultural and food chemistry, 2010)
Values joined by “and” are separate entries in the source; they are usually repeats but may differ in a detail not shown here. Identical values can stand only once.

How the values were obtained:
[1] = Stability of ^14C-MPS and ^14C-MPO in culture media; format: physicochemical; conditions: 1 μM; for OP recovered from the media unchanged: 72 h incubation in media, 37 °C
[2] = system: SH-SY5Y cells; test: MTT viability assay; format: cell-based, human; conditions: for cytotoxicity (in words): 50 μM, 48 and 72 h
[3] = system: SH-SY5Y cells; test: Preliminary uptake of ^14C-MPS and ^14C-MPO in SH-SY5Y cells; format: in vitro ADME, human; conditions: 1 μM exposure; for share of total applied radioactivity that entered the cells: at the most
[4] = system: SH-SY5Y cells; test: Fate in uptake experiments: OP and degradation products in cell cytosol; format: in vitro ADME, human; conditions: for uptake rate constant / amount of parent OP in the cytosol / total uptake (OP and degradation products): 1 μM exposure; for total uptake (OP and degradation products): 48 h (maximum); for OP associated with the membrane fraction (in words): uptake experiments; for Percentage of MPS in cell cytosol (per 10^6 cells) / Relative ratio of MPS in cell cytosol: 1 μM of OP
[5] = target: acetylcholinesterase (AChE, EC 3.1.1.7); conditions: cited from earlier work
[6] = Fate in uptake experiments: OP and degradation products in culture media; format: in vitro ADME; conditions: cells exposed to 1 μM of OP
[7] = cited from earlier work

COP(=O)(OC)Oc1ccc([N+](=O)[O-])cc1 [MPO, methyl paraoxon]
OP recovered from the media unchanged [1]: more than 50%
cytotoxicity (in words) [2]: Some cytotoxicity
cytotoxicity ([2]; 100 μM, all time points (24, 48, 72 h)): at least 60%
share of total applied radioactivity that entered the cells [3]: ≤ 5%
maximum level of uptake (total amount of OP inside cells) ([3]; maximum at 48 h): 46 nM
uptake rate constant [4]: 0.025 h⁻¹
amount of parent OP in the cytosol ([4]; 48 h): 0.37 nM/10^6 cells
total uptake (OP and degradation products) [4]: 1.76 nM/10^6 cells
OP associated with the membrane fraction (in words) [4]: negligible amount

CCOP(=O)(OCC)Oc1ccc([N+](=O)[O-])cc1 [paraoxon]
IC50 ([5]; read-out: IC50 (inhibition of AChE)): 10 nM

COP(=S)(OC)Oc1ccc([N+](=O)[O-])cc1 [MPS, OO, -dimethyl O-4-nitrophenyl phosphorothioate]
OP recovered from the media unchanged [1]: more than 50%
^14C-MPO formed by oxidation in media ([1]; after 4 days in media): less than 1%
cytotoxicity (in words) [2]: Some cytotoxicity
cell viability (in words) ([2]; 100 μM, 24 h): no significant decrease in viability
cytotoxicity ([2]; 100 μM, 24 h): 4–5% and 4%
cytotoxicity ([2]; 100 μM, 48 h): ~ 60% and 60%
cytotoxicity ([2]; 100 μM, 72 h): 90%
share of total applied radioactivity that entered the cells [3]: ≤ 5%
maximum level of uptake (total amount of OP inside cells) ([3]; maximum at 24 h): 13 nM
uptake rate constant [4]: 0.054 h⁻¹
amount of parent OP in the cytosol ([4]; 48 h): 0.54 nM/10^6 cells
total uptake (OP and degradation products) [4]: 1.19 nM/10^6 cells
Percentage of MPS in cell cytosol (per 10^6 cells) ([4]; 24 h): 0.036 ± 0.001%
Relative ratio of MPS in cell cytosol ([4]; 24 h): 45.3 ± 1.5
Percentage of MPS in cell cytosol (per 10^6 cells) ([4]; 48 h): 0.054 ± 0.006%
Relative ratio of MPS in cell cytosol ([4]; 48 h, listed as 14C-MPS): 46 and 45.8 ± 2.0
Percentage of MPS in cell cytosol (per 10^6 cells) ([4]; 72 h): 0.043 ± 0.004%
Relative ratio of MPS in cell cytosol ([4]; 72 h): 43.5 ± 1.8
OP associated with the membrane fraction (in words) [4]: negligible amount
Relative ratio of MPS in culture media ([6]; 24 h): 74.3 ± 1.0
Relative ratio of MPS in culture media ([6]; 48 h): 63.9 ± 0.1
Relative ratio of MPS in culture media ([6]; 72 h): 52.9 ± 0.8
Log Po/w [7]: 3.0

CCOP(=S)(OCC)Oc1ccc([N+](=O)[O-])cc1 [Parathion]
IC50 (cholinesterase inhibition) [5]: 10^−4 to 10^−5 M

CCOP(=O)(OCC)Oc1ccc([N+](=O)[O-])cc1 [ethyl paraoxon]
Log Po/w [7]: 1.6
